{"source": "paper PMC11010885", "about": "“Functional Analysis and Tissue-Specific Expression of Calcitonin and CGRP with RAMP-Modulated Receptors CTR and CLR in Chickens” (Animals : an Open Access Journal from MDPI, 2024)", "format_in_all_cases": "cell-based", "key": {"chicken CLR + RAMPs": {"tested_on": "chicken CLR + RAMPs", "test": "Western blot CREB phosphorylation, CLR + RAMPs in CHO cells", "settings": "10 nM, 10 min, n = 3", "description": "(§1) To assess whether the activation of chicken CTR and CLR, along with the presence of RAMPs, can augment the phosphorylation levels of cAMP response element-binding protein (CREB), 200 ng of CTR or CLR expression plasmids were combined with 1000 ng of chicken RAMPs or an empty pcDNA3.1 (+) vector in a 100 μL buffer. The resulting mixture was then transfected into CHO cells in a 12-well plate (Nunc, Rochester, NY, USA) using 3.6 μL of PEI MAX transfection reagent. After a 24 h incubation period, the cells were exposed to chicken CT (10 nM) or CGRP (10 nM) for 10 min. Subsequently, the culture medium was removed, and the cells were lysed according to the manufacturer’s instructions. Western blot analysis was performed to quantify the levels of CREB and phosphorylated CREB (p-CREB). The optical densities were analyzed and normalized using the software, ImageJ 1.52a (National Institutes of Health, Bethesda, MD, USA). The relative expression of p-CREB/CREB was determined by calculating the ratio of the optical density to that of the control without peptide treatment (0 min)."}, "[1]": {"tested_on": "chicken CTR in the absence or presence of RAMPs", "test": "cAMP/PKA pGL3-CRE-luciferase reporter assay, CTR without and with RAMPs compared", "settings": "CHO cells, pGL3-CRE-luciferase", "description": "(§2) Chinese hamster ovary (CHO) cells were cultured in Dulbecco’s modified Eagle’s medium (DMEM) supplemented with 10% (vol/vol) fetal bovine serum (HyClone, Logan, UT, USA), 100 U/mL penicillin G and 100 μg/mL streptomycin. The cells were maintained in a 90 mm culture dish (Nunc, Rochester, NY, USA) and incubated at 37 °C with 5% CO2. To investigate the signaling pathways associated with each receptor in CHO cells, three different reporter systems (pGL3-CRE-luciferase, pGL4-SRE-luciferase, and pGL3-NFAT-RE-luciferase) were utilized to monitor intracellular cAMP/PKA and MAPK/ERK signaling pathways and calcium mobilization of the activated receptors, respectively.\n(§3) Prior to the transfection procedure, the cells were initially cultured in 6-well plates (Nunc, Rochester, NY, USA), maintaining a seeding density of approximately 300,000 cells per well. Upon achieving approximately 70% confluence, the cells underwent a co-transfection process. This procedure entailed the introduction of 700 ng of various luciferase reporter constructs (namely, pGL3-CRE-luciferase, pGL4-SRE-luciferase, or pGL3-NFAT-RE-luciferase) combined with 200 ng of a specific receptor plasmid (CTR or CLR) and 1000 ng of either RAMP1, RAMP2, RAMP3 expression plasmids, or alternatively, the empty pcDNA3.1 (+) vector. A volume of 5.7 μL of PEI MAX was used in 200 μL of buffer following the manufacturer’s protocol. After 24 h of incubation, the transfected CHO cells were subcultured in 96-well plates and passaged for an additional 24 h before peptide treatment. Then, the medium from the 96-well plates was removed, and the cells were treated with chicken CT/CGRP-containing medium (or untreated medium as a control) at concentrations ranging from 10^−12 M to 10^−6 M for 6 h. […] The fluorescence activity of the luciferase in each treatment group was measured using a multimode microplate reader (TriStar LB941, Berthold Technologies, Bad Wildbad, Germany). Finally, the fluorescence activity of each treatment group was expressed as a relative increase ratio compared to the control group."}, "chicken CTR + RAMP2 [2]": {"tested_on": "chicken CTR + RAMP2", "test": "cAMP/PKA pGL3-CRE-luciferase reporter assay, CTR + RAMP2 in CHO cells", "settings": "10^−12 M to 10^−6 M, 6 h, mean ± SEM, n = 3, read-out: EC50, cAMP/PKA signaling pathway", "description": "as §2\n(§4) Prior to the transfection procedure, the cells were initially cultured in 6-well plates (Nunc, Rochester, NY, USA), maintaining a seeding density of approximately 300,000 cells per well. Upon achieving approximately 70% confluence, the cells underwent a co-transfection process. […] The fluorescence activity of the luciferase in each treatment group was measured using a multimode microplate reader (TriStar LB941, Berthold Technologies, Bad Wildbad, Germany). Finally, the fluorescence activity of each treatment group was expressed as a relative increase ratio compared to the control group."}, "chicken CLR [3]": {"tested_on": "chicken CLR", "test": "Western blot CREB phosphorylation, CLR in CHO cells", "settings": "10 nM, 10 min, n = 3", "description": "as §1"}, "chicken CLR + RAMP2 [4]": {"tested_on": "chicken CLR + RAMP2", "test": "cAMP/PKA pGL3-CRE-luciferase reporter assay, CLR + RAMP2 in CHO cells", "settings": "10^−12 M to 10^−6 M, 6 h, mean ± SEM, n = 3, read-out: EC50, cAMP/PKA signaling pathway", "description": "as §2, §4"}, "chicken CLR + RAMP3": {"tested_on": "chicken CLR + RAMP3", "test": "cAMP/PKA pGL3-CRE-luciferase reporter assay, CLR + RAMP3 in CHO cells", "settings": "10^−12 M to 10^−6 M, 6 h, mean ± SEM, n = 3, read-out: EC50, cAMP/PKA signaling pathway", "description": "as §2, §4"}, "chicken CTR + RAMP2 [5]": {"tested_on": "chicken CTR + RAMP2", "test": "MAPK/ERK pGL4-SRE-luciferase reporter assay, CTR + RAMP2 in CHO cells", "settings": "10^−12 M to 10^−6 M, 6 h, mean ± SEM, n = 3, read-out: EC50, MAPK/ERK signaling pathway", "description": "as §2, §4"}, "chicken CTR + RAMP1 [6]": {"tested_on": "chicken CTR + RAMP1", "test": "MAPK/ERK pGL4-SRE-luciferase reporter assay, CTR + RAMP1 in CHO cells", "settings": "10^−12 M to 10^−6 M, 6 h, mean ± SEM, n = 3, read-out: EC50, MAPK/ERK signaling pathway", "description": "as §2, §4"}, "chicken CLR [7]": {"tested_on": "chicken CLR", "test": "cAMP/PKA pGL3-CRE-luciferase reporter assay, CLR + pcDNA in CHO cells", "description": "as §2\nPrior to the transfection procedure, the cells were initially cultured in 6-well plates (Nunc, Rochester, NY, USA), maintaining a seeding density of approximately 300,000 cells per well. Upon achieving approximately 70% confluence, the cells underwent a co-transfection process. This procedure entailed the introduction of 700 ng of various luciferase reporter constructs (namely, pGL3-CRE-luciferase, pGL4-SRE-luciferase, or pGL3-NFAT-RE-luciferase) combined with 200 ng of a specific receptor plasmid (CTR or CLR) and 1000 ng of either RAMP1, RAMP2, RAMP3 expression plasmids, or alternatively, the empty pcDNA3.1 (+) vector. A volume of 5.7 μL of PEI MAX was used in 200 μL of buffer following the manufacturer’s protocol. After 24 h of incubation, the transfected CHO cells were subcultured in 96-well plates and passaged for an additional 24 h before peptide treatment. Then, the medium from the 96-well plates was removed, and the cells were treated with chicken CT/CGRP-containing medium (or untreated medium as a control) at concentrations ranging from 10^−12 M to 10^−6 M for 6 h. Subsequently, the cells were harvested for luciferase assays by lysing them in 1 × passive lysis buffer. To measure the luciferase activity of the cell lysate, 40 μL of luciferase assay reagent (Promega, Madison, WI, USA) was mixed with the cell lysate following the manufacturer’s instructions. The fluorescence activity of the luciferase in each treatment group was measured using a multimode microplate reader (TriStar LB941, Berthold Technologies, Bad Wildbad, Germany). Finally, the fluorescence activity of each treatment group was expressed as a relative increase ratio compared to the control group."}, "chicken CLR + RAMP1 [8]": {"tested_on": "chicken CLR + RAMP1", "test": "cAMP/PKA pGL3-CRE-luciferase reporter assay, CLR + RAMP1 in CHO cells", "settings": "CLR + RAMP1, CHO cells, pGL3-CRE-luciferase, 10^−12 M to 10^−6 M, 6 h; mean ± SEM, n = 3; read-out: EC50, cAMP/PKA signaling pathway", "description": "as §2, §3"}, "chicken CLR + RAMP1 [9]": {"tested_on": "chicken CLR + RAMP1", "test": "Calcium pGL3-NFAT-RE-luciferase reporter assay, CLR + RAMP1 in CHO cells", "settings": "10^−12 M to 10^−6 M, 6 h, mean ± SEM, n = 3, read-out: EC50, calcium signaling pathway", "description": "as §2, §4"}, "chicken CLR + RAMP2 [10]": {"tested_on": "chicken CLR + RAMP2", "test": "MAPK/ERK pGL4-SRE-luciferase reporter assay, CLR + RAMP2 in CHO cells", "settings": "10^−12 M to 10^−6 M, 6 h, mean ± SEM, n = 3, read-out: EC50, MAPK/ERK signaling pathway", "description": "as §2, §4"}, "chicken CTR + RAMP1 [11]": {"tested_on": "chicken CTR + RAMP1", "test": "Calcium pGL3-NFAT-RE-luciferase reporter assay, CTR + RAMP1 in CHO cells", "settings": "10^−12 M to 10^−6 M, 6 h, mean ± SEM, n = 3, read-out: EC50, calcium signaling pathway", "description": "as §2, §4"}, "chicken CTR + RAMP3 [12]": {"tested_on": "chicken CTR + RAMP3", "test": "Calcium pGL3-NFAT-RE-luciferase reporter assay, CTR + RAMP3 in CHO cells", "settings": "10^−12 M to 10^−6 M, 6 h, mean ± SEM, n = 3, read-out: EC50, calcium signaling pathway", "description": "as §2, §4"}, "chicken CTR + RAMP3 [13]": {"tested_on": "chicken CTR + RAMP3", "test": "MAPK/ERK pGL4-SRE-luciferase reporter assay, CTR + RAMP3 in CHO cells", "settings": "10^−12 M to 10^−6 M, 6 h, mean ± SEM, n = 3, read-out: EC50, MAPK/ERK signaling pathway", "description": "as §2, §4"}, "chicken CLR [14]": {"tested_on": "chicken CLR", "test": "MAPK/ERK pGL4-SRE-luciferase reporter assay, CLR + pcDNA in CHO cells", "settings": "10^−12 M to 10^−6 M, 6 h, mean ± SEM, n = 3, read-out: EC50, MAPK/ERK signaling pathway", "description": "as §2, §4"}}, "note": "Entries after “also recorded” stand apart in the source; their conditions may differ.", "data": [{"substance": "calcitonin [CT]", "values": [{"measurement": "CREB phosphorylation (p-CREB/CREB vs. control, 0 min)", "setting": "chicken CLR + RAMPs", "value": "significantly enhanced the CREB phosphorylation"}, {"measurement": "effect of RAMP co-expression on sensitivity of CTR", "setting": "[1]", "value": "does not markedly influence the sensitivity of chicken CTR for CT; also recorded: a slight decrease in sensitivity towards CT"}, {"measurement": "EC50", "setting": "chicken CTR + RAMP2 [2]", "value": "0.67 ± 0.1", "unit": "nM"}, {"measurement": "CREB phosphorylation (p-CREB/CREB vs. control, 0 min)", "setting": "chicken CLR [3]", "value": "significantly enhanced the CREB phosphorylation"}, {"measurement": "EC50", "setting": "chicken CLR + RAMP2 [4]", "value": "0.93 ± 0.15", "unit": "nM"}, {"measurement": "EC50", "setting": "chicken CLR + RAMP3", "value": "1.27 ± 0.83", "unit": "nM"}, {"measurement": "EC50", "setting": "chicken CTR + RAMP2 [5]", "value": "2.09 ± 0.42", "unit": "nM"}, {"measurement": "EC50", "setting": "chicken CTR + RAMP1 [6]", "value": "1.38 ± 0.24", "unit": "nM"}, {"measurement": "EC50", "setting": "chicken CLR [7]; CLR + pcDNA, CHO cells, pGL3-CRE-luciferase, 10^−12 M to 10^−6 M, 6 h, mean ± SEM, n = 3, read-out: EC50, cAMP/PKA signaling pathway", "value": "0.75 ± 0.21", "unit": "nM"}, {"measurement": "activation (cAMP production), in words", "setting": "chicken CLR [7]; independent CLR", "value": "strongly activates"}, {"measurement": "EC50", "setting": "chicken CLR + RAMP1 [8]", "value": "3.3 ± 0.96", "unit": "nM"}, {"measurement": "EC50", "setting": "chicken CLR + RAMP1 [9]", "value": "5.81 ± 5.75", "unit": "nM"}, {"measurement": "EC50", "setting": "chicken CLR + RAMP2 [10]", "value": "0.38 ± 0.09", "unit": "nM"}, {"measurement": "EC50", "setting": "chicken CTR + RAMP1 [11]", "value": "> 100", "unit": "nM"}, {"measurement": "EC50", "setting": "chicken CTR + RAMP3 [12]", "value": "> 100", "unit": "nM"}, {"measurement": "EC50", "setting": "chicken CTR + RAMP3 [13]", "value": "0.38 ± 0.13", "unit": "nM"}, {"measurement": "EC50", "setting": "chicken CLR [14]", "value": "0.3 ± 0.12", "unit": "nM"}]}]}
